Results on 1 substance are retold here after patent US20060134630A1, “Method for screening for an antimicrobial polypeptide” (Novozymes A/S, priority 2002, published 2006).

The test system of assay [1] is Fusarium longypes. As to the kind of experiment: Growth inhibition of Fusarium longypes by AFP (filter-agar plate treated with chloroform). Particulars: Fusarium longypes top-layer over origami colonies, 0.1% arabinose, 3 days room temperature. In kind it is cell-based. Further details: key: +: whether or not a clearing zone is present in the top-layer; −: whether or not a clearing zone is present in the top-layer. An excerpt:
E. coli origami cells were transformed with pHHA900-AFP and pHHA, respectively and cultured overnight at 37 degrees C. on LB-agar plates containing tetracycline (tet), kanamycin (kan) and ampicillin (amp) to select for viable origami cells comprising said constructs. Two viable origami colonies containing each of the constructs were selected and used to inoculate 3 other LB-agar plates with tet, kan and amp before culturing said plates for 3 days at 37 degrees C. A cellulose acetate filter (Schleider & Schull) was placed on top of each of the plates and the colonies were striped off with the filters. The filters were then place on new LB-agar plates containing 0.1% arabinose with the colonies facing up to induce expression of the AFP. The filter-agar, 0.1% arabinose plates were incubated overnight at 37 degrees C. before treating them with chloroform as described in example 1. After this a top-layer of 6 ml agar comprising approximately […] Fusarium longypes were poured on top of the chloroform treated filter-agar plate. The plates with top-layer were then incubated for 3 days at room temperature. The pink color of the Fusarium longypes mycelium facilitated the detection of the clearing zones in the top layer. […]

For assay [2], the system named is Fusarium longypes. Kind of assay: Growth inhibition of Fusarium longypes by AFP diffused into solid media (filter removed). Details: key: +: whether or not a clearing zone is present in the top-layer; −: whether or not a clearing zone is present in the top-layer. The conditions noted are these: Fusarium longypes top-layer, acetate filter removed, 0.1% arabinose, 3 days room temperature. The class given is cell-based. An excerpt: The method used in this example is similar to the method described in example 14 with the difference that in this example the acetate filter containing the E.coli origami cells is removed from the arabinose plate before it is overlaid with the fungus Fusarium longypes which is used as an indicator strain.
Additionally, this example is very similar to example 4, with the exception that in the present example AFP is the antimicrobial polypeptide (instead of Plectasin in example 4) and Fusarium longypes is the indicator cells (instead of Bacillus subtilis in example 4). As described in example 14, E. coli origami cells were transformed with pHHA900-AFP and pHHA, respectively and cultured overnight at 37 degrees C on LB-agar plates containing tetracycline (tet), kanamycin (kan) and ampicillin (amp) to select for viable E.coli origami cells comprising said constructs. Two viable E.coli origami colonies containing each of the constructs were selected and used to inoculate a LB-agar plate with tet, kan and amp before culturing said plate for 3 days at 37 degrees C. A cellulose acetate filter was placed on top of the plate and the colonies were striped off with the filter. The filter was then placed on a new LB-agar plate containing 0.1% arabinose with the colonies facing up to induce expression of the AFP. The filter-agar, 0.1% arabinose plate was incubated overnight at 37 degrees C. […]

With “pHHA900-AFP: antifungal protein derived from Aspergillus giganteus, expressed in the cytoplasm (ATYNGKCYKKDNICKYKAQSGKTAICKCYVKKCPRDGAKCEFDSYKGKCYC; UniProt P17737 44-94, looked up)”, the “Clearing zone +/−, Plate treated with chloroform” value with Fusarium longypes [1] is on record as “+”. In addition, the “Clearing zone +/−” value in the assay with Fusarium longypes [2] was “+”.
